According to patent US6413937B1, “Combinations for use in increasing the potency of a substrate for multidrug resistance related protein” (Dublin City University and Enterprise Ireland, priority 1996, dated 2002):

Legend:
[1] = system: SP2 mouse myeloma cells; experiment: mouse tumour model, survival of Balb/c mice injected with SP2 cells; format: in vivo; conditions: groups of 8 Balb/c mice; i.p. once a day, five days a week; adriamycin 0.25 mg/kg, tolmetin 70 mg/kg; after 32 days
Method: The in vivo relevance of our findings was studied using a mouse tumour model. SP2 tumour cells were injected into 4 groups of mice. Groups of 8 male Balb/c mice 8 weeks old were maintained on normal diets. Animals were injected with 2 million SP2 mouse myeloma cells on day 1. On day 3 intraperitoneal injection with adriamycin, tolmetin or a combination of the two was begun. This continued once a day, five days a week for a total of 32 days. The agents were dissolved in PBS and prepared freshly twice per week. The animals were weighed and the average weight of the group was used to calculate the required concentration of the drugs. Adriamycin was administered to give a final concentration of 0.25 mg/kg, the tolmetin dose was 70 mg/kg. […] The results were expressed as the number of animals alive each day as a percentage of the original number of animals alive.
Group 1 received injections of the vehicle (PBS) alone, group 2, adriamycin at 0.25 mg/kg, group 3, tolmetin at 70 mg/kg and group 4 received both agents (adriamycin, 0.25 mg/kg and tolmetin, 70 mg/kg). After 32 days there were clear differences in the % survival between the groups (FIG. 5). […] Two mice remained in the adriamycin group but 5 survived to the end of the experiment from the combination group (group 4).

[2] = system: A549 cell line; experiment: miniaturised in vitro colorimetric cell survival assay (acid phosphatase end-point), A549; format: cell-based, human; conditions: for % cell survival: alone or + Adriamycin 20 ng/ml
Method: (§1) All the results presented in this Example for the DLKP, A549 and OAW42-SR cell lines were derived using the same miniaturised in vitro calorimetric assay system. On Day 1 of the assay 1000 cells/well/100 μl were plated into 96-well plates. Cells were allowed to attach overnight and cell viability was visually assessed. […] NSAID plus chemotherapeutic drug) to be analysed were added onto the cells. The individual drugs were added separately in 50 μl quantities (4× stocks, to take into account the dilution effect of having 200 μl final volume in each well). The drugs were left on the cells for five further days (Day 7) and cell number was determined using the acid phosphatase end-point assay which uses p-nitrophenol phosphate as substrate (Martin, A. and Clynes, M. (1991) In Vitro Dev. Biol., 27A, 183-184). On Day 7 the culture medium was removed from the cells and they were washed once with phosphate buffered saline (PBS). […] After the incubation period 50 μl of 1N NaOH was added to each well to develop the colour. The plates were then read at 405 nm (reference 620 nm) on an ELISA plate-reader. […] All results are the cell survival means ±S.D. from a minimum of three experiments.

[3] = system: COR L23 R (MRP+) cells; conditions: doxorubicin 10 mg/ml alone or with sulindac 20 mg/ml, 1, 2, 4 h, FIG. 3
Method: (§2) 10^6 COR L23 P (parental non-MRP resistant, MRP−) or COR L23 R (MRP resistant, MRP+) cells were added to 75 cm^3 vented flasks containing HEPES buffered Rosemount Park Memorial Institute (RPMI) medium and maintained at 37° C. in a 5% CO2 atmosphere. […] After three days of growth, doxorubicin (final concentration 10 mg/ml), sulindac (final concentration 20 mg/ml) or doxorubicin and sulindac were added to individual flasks. Samples were taken after 1, 2 and 4 h. and assayed for drug content.
(§3) The contents of each flask were washed twice with 5 ml of PBS and stored at −70° C. The flasks were thawed and 100 μl of water and 100 μl of 33% silver nitrate added to each and mixed for 5 min. […]
(§4) The extract was resuspended in 50 μl of methanol in the sample vial and loaded into the HPLC autosampler. […] The mobile phases were pumped through a C18 reversed-phase Ultrasphere XL (Beckman) HPLC column (4.6×70 mm) with absorbance measured at 253 nm. […] The amount of doxorubicin and sulindac present was quantified by measuring the peak height of these drugs and the internal standard. […] The concentration of doxorubicin in the samples was calculated from the) nd development standard line using the peak height ratio. The sulindac concentrations were calculated by the same method.

[4] = system: COR L23 P (non-MRP) cells; conditions: doxorubicin 10 mg/ml alone or with sulindac 20 mg/ml, 1, 2, 4 h, FIG. 4
Method: as §2, §3, §4

[5] = system: DLKP cell line; experiment: miniaturised in vitro colorimetric cell survival assay (acid phosphatase end-point), DLKP; format: cell-based, human
Method: as §1

[6] = system: OAW42-SR cell line; experiment: miniaturised in vitro colorimetric cell survival assay, LRP overexpressing OAW42-SR; format: cell-based, human; conditions: vi) Adriamycin 147 ng/ml alone
Method: All the results presented in this Example for the DLKP, A549 and OAW42-SR cell lines were derived using the same miniaturised in vitro calorimetric assay system. On Day 1 of the assay 1000 cells/well/100 μl were plated into 96-well plates. Cells were allowed to attach overnight and cell viability was visually assessed. On Day 2 the two drugs (i.e. NSAID plus chemotherapeutic drug) to be analysed were added onto the cells. The individual drugs were added separately in 50 μl quantities (4× stocks, to take into account the dilution effect of having 200 μl final volume in each well). The drugs were left on the cells for five further days (Day 7) and cell number was determined using the acid phosphatase end-point assay which uses p-nitrophenol phosphate as substrate (Martin, A. and Clynes, M. (1991) In Vitro Dev. Biol., 27A, 183-184). On Day 7 the culture medium was removed from the cells and they were washed once with phosphate buffered saline (PBS). […] After the incubation period 50 μl of 1N NaOH was added to each well to develop the colour. The plates were then read at 405 nm (reference 620 nm) on an ELISA plate-reader. […] All results are the cell survival means ±S.D. from a minimum of three experiments.

[7] = system: MRP-specific substrates; experiment: screen for enhancement of toxicity of MRP substrates by NSAIDs; format: cell-based; conditions: summary statements
[8] = system: GST prepared from DLKP cells; experiment: total GST assay with 1-chloro-2,4-dinitrobenzene; format: biochemical, human; conditions: 0.4 mM
Method: The other NSAIDs were tested in a total GST assay (Habig, W. H., and Jakoby, W. B., (1981); Methods Enzymol., 77: 218-231). Total cellular GST activity was assayed, using 1-chloro-2,4-dinitrobenzene as a substrate, according to the method of Habig, W. H., and Jakoby, W. B., (1981); supra. Due to spectrophotometric interference at 340 nm, caused by the majority of the NSAIDs, the assays were all performed at 360 nm, without any apparent effect on the rate of the control reaction The results are shown in Table 5.

[9] = target: T1, MRP pump (Homo sapiens, UniProt P33527); experiment: ATP-dependent transport of [3H]LTC4 into inside-out plasma membrane vesicles from HL60ADR cells; format: biochemical
T1 construct: inside-out plasma membrane vesicles prepared from HL60ADR cells; endogenous in cells; host or cells: HL60ADR cells (plasma membrane vesicles)
T1 sequence (P33527 whole entry): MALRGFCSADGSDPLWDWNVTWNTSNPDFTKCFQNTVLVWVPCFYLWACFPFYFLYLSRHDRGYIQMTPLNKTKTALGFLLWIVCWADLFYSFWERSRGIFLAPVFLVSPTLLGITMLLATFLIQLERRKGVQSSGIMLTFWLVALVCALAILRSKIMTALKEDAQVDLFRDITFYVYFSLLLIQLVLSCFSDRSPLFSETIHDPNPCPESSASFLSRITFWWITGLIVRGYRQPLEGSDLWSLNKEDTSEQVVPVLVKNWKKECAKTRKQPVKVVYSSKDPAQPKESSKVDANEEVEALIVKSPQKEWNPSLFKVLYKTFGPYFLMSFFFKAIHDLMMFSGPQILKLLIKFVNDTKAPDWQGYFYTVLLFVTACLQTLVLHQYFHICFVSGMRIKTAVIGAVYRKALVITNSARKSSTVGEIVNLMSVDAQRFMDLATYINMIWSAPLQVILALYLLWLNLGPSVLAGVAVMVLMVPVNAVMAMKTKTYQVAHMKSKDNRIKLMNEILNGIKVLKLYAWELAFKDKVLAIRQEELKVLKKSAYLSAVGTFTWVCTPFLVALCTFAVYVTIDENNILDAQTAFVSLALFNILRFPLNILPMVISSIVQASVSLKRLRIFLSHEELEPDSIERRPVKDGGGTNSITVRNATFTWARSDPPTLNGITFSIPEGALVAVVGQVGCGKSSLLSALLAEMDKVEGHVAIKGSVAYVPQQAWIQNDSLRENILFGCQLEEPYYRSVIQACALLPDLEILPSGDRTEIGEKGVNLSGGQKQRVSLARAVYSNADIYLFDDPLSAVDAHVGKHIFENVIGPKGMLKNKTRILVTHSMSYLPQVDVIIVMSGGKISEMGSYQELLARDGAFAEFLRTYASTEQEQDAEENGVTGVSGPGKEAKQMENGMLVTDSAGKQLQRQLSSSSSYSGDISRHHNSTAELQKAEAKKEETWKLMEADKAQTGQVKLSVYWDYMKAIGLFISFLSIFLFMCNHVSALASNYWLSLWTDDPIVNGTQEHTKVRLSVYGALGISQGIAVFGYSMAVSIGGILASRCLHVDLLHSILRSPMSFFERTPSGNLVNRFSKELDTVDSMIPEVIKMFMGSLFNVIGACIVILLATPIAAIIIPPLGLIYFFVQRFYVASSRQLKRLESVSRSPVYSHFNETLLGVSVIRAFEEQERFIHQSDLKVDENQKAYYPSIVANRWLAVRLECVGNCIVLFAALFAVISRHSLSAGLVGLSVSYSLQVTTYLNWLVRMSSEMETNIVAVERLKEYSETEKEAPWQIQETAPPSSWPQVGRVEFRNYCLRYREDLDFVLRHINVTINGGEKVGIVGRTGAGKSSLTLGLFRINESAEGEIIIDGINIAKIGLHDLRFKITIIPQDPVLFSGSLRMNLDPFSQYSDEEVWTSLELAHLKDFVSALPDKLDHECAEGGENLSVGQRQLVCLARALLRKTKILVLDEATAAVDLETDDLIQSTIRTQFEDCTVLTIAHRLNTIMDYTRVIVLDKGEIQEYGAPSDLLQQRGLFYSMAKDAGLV
Method: To determine if the NSAIDs were acting directly on the MRP pump the uptake of [^3H]LTC4 into inside-out plasma membrane vesicles prepared from HL60ADR cells was examined using a rapid filtration procedure (Ishikawa,T., et al. (1994); J. Biol. Chem. 269 (46); 29085-29093). ATP-dependent transport of [^3H]LTC4 into the membrane vesicles was measured by a rapid filtration method using a Millipore sampling manifold. The membrane vesicles were thawed at 37° C. before use and kept on ice. The reaction components consisted of 0.25 M sucrose/10 mM Tris.HCl pH 7.4/1 mM ATP/10 mM MgCl2/10 mM creatine phosphate/ 110 μg/ml creatine kinase and 10 nM [^3H]LTC4, with 50 μg of the inside-out vesicle preparation, in a final volume of 110 μl. This suspension was incubated at 37° C., with gentle mixing, and aliquots, 20 μl, were taken at the indicated points. Those aliquots were diluted in 1 ml of ice-cold incubation buffer before being applied to 0.22 μm Millipore GSWP nitrocellulose filters, pre-soaked in ice-cold incubation buffer, under suction. The filters were subsequently washed with 3 ml ice-cold incubation buffer, and absorbed radioactivity was measured using a scintillation counter (Beckman). In control experiments ATP was replaced with 5μ-AMP to determine the ATP-dependent transport.

[10] = system: HL-60ADR cells; experiment: etoposide-induced apoptosis (nuclear fragmentation), HL-60ADR; format: cell-based; conditions: HL-60ADR (resistant); etoposide alone or co-treated with sulindac; FIG. 1
Method: An experiment was carried out to determine the effect of the NSAID sulindac on etoposide-induced apoptosis in two cell lines, namely HL-60S and HL-60ADR. These cell lines were donated by Dr. Melvin Center, Kansas State University, Manhattan Kans. 66506, U.S.A. For the HL-60S and ADR cell lines the percentage of apoptotic cells within the cell population, following drug exposure, was used to quantify toxicity. Cells were plated in fresh medium at a concentration of 10^6 cells/ml in a 24-well plate (Greiner) and drugs were then added to the wells. A 200 μl sample from each well was taken after 4 and 8 hrs. Samples were cytospun for 2 min at 500 rpm using a Shandon Cytofuge3. After air-drying the cytospins were stained using a Romanowsky staining kit, Rappi-Diff II (Langanbach), dried and mounted in DPX (BDH). Slides were studied on an Optiphot microscope (Nikon) fitted with a 40× objective, and visualised on a monitor via a Mitsubishi CCD-100E colour CCD-camera and a 0.6× relay lens. Nuclear fragmentation was used as a morphological marker for apoptosis and a minimum of 200 cells were assessed in at least three different microscopic fields. Results were expressed as the percentage of apoptotic cells within the population. Each experiment was repeated in duplicate.

[11] = system: DLKP-A cell line; experiment: miniaturised in vitro colorimetric cell survival assay, P-170 overexpressing DLKP-A; format: cell-based, human; conditions: v) Vincristine 1.0 μg/ml alone
Method: All the results presented in this Example for the DLKP, A549 and OAW42-SR cell lines were derived using the same miniaturised in vitro calorimetric assay system. On Day 1 of the assay 1000 cells/well/100 μl were plated into 96-well plates. Cells were allowed to attach overnight and cell viability was visually assessed. On Day 2 the two drugs (i.e. NSAID plus chemotherapeutic drug) to be analysed were added onto the cells. The individual drugs were added separately in 50 μl quantities (4× stocks, to take into account the dilution effect of having 200 μl final volume in each well). The drugs were left on the cells for five further days (Day 7) and cell number was determined using the acid phosphatase end-point assay which uses p-nitrophenol phosphate as substrate (Martin, A. and Clynes, M. (1991) In Vitro Dev. Biol., 27A, 183-184). On Day 7 the culture medium was removed from the cells and they were washed once with phosphate buffered saline (PBS). After washing, 100 μl of freshly prepared substrate-containing buffer (0.1% Triton X-100 in 0.1M sodium acetate, pH 5.5) was added to each well and the plates were left in an incubator at 37° C. for 2 h. After the incubation period 50 μl of 1N NaOH was added to each well to develop the colour. The plates were then read at 405 nm (reference 620 nm) on an ELISA plate-reader.
In the results given below the % cell survival in the drug-free control is 100%. All results are the cell survival means ±S.D. from a minimum of three experiments.
v) is an example of a positive NSAID plus a positive drug on a P-170 overexpressing cell line: DLKP-A;

COc1cccc2c1C(=O)c1c(O)c3c(c(O)c1C2=O)C[C@@](O)(C(=O)CO)C[C@@H]3O[C@H]1C[C@H](N)[C@H](O)[C@H](C)O1 [Adriamycin, adriamycin]
mice surviving to the end of the experiment [1]: Two
viability at 0.04 µg/mL ([2]; Homo sapiens, A549, 120 h, ix) Adriamycin 40 ng/ml alone): 54 ± 6.05%
viability at 0.015 µg/mL ([2]; Homo sapiens, A549, 120 h, viii) Adriamycin 15 ng/ml alone): 61 ± 5.05%
viability at 0.015 µg/mL ([2]; Homo sapiens, A549, 120 h, x) Adriamycin 15 ng/ml alone): 47 ± 5.15%
viability at 0.04 µg/mL ([2]; Homo sapiens, A549, 120 h, xi) Adriamycin 40 ng/ml alone): 46 ± 5.05%
viability at 0.015 µg/mL ([2]; Homo sapiens, A549, 120 h, xii) Adriamycin 15 ng/ml alone): 70.7 ± 4.25%
viability at 0.015 µg/mL ([2]; Homo sapiens, A549, 120 h, xiii) Adriamycin 15 ng/ml alone): 68 ± 5.82%
viability at 0.02 µg/mL ([2]; Homo sapiens, A549, 120 h, xiv) Adriamycin 20 ng/ml alone): 78 ± 3.95%
viability at 0.015 µg/mL ([2]; Homo sapiens, A549, 120 h, xv) Adriamycin 15 ng/ml alone): 89 ± 11.9%
viability at 0.017 µg/mL ([2]; Homo sapiens, A549, 120 h, xvi) Adriamycin 17 ng/ml alone): 76.7 ± 5.4%
doxorubicin level in the cells [3]: less doxorubicin is found in the cells
doxorubicin level in the cells [4]: high levels of doxorubicin are found in the cell
% cell survival ([5]; i) Adriamycin 10 ng/ml alone): 60.35 ± 3.2%
% cell survival [6]: 47.41 ± 1.3%

Cc1ccc(C(=O)c2ccc(CC(=O)O)n2C)cc1 [Tolmetin, tolmetin]
mice surviving to the end of the experiment [1]: all but one from group 3 were dead
% cell survival ([2]; xiv) Tolmetin 8.50 μg/ml): 91.84 ± 10.99%
% cell survival ([2]; xiv) Tolmetin 14.10 μg/ml): 97.59 ± 9.85%
% cell survival ([2]; xiv) Tolmetin 24.20 μg/ml): 99.24 ± 10.35%
enhancement of toxicity of MRP substrates [7]: have been found to enhance the toxicity of MRP-specific substrates
% Inhibition of GST [8]: 55%
inhibition at 432 µM ([9]; 0.432 mM): 22%
inhibition at 863 µM ([9]; 0.863 mM): 50%
% cell survival ([5]; i) Tolmetin 6.25 μg/ml, alone or + Adriamycin 10 ng/ml): 104.38 ± 6.8%
% cell survival ([5]; i) Tolmetin 12.5 μg/ml, alone or + Adriamycin 10 ng/ml): 104.23 ± 6.2%
% cell survival ([5]; i) Tolmetin 25 μg/ml, alone or + Adriamycin 10 ng/ml): 100.49 ± 7.3%

COc1cc([C@@H]2c3cc4c(cc3[C@@H](O[C@@H]3O[C@@H]5CO[C@@H](C)O[C@H]5[C@H](O)[C@H]3O)[C@H]3COC(=O)[C@H]23)OCO4)cc(OC)c1O [VP-16, etoposide]
etoposide-induced apoptosis, percentage of apoptotic cells [10]: only a basal level of apoptosis is seen
% cell survival ([5]; iii) VP-16 100 ng/ml alone): 63.46 ± 1.4%

CC[C@]1(O)C[C@H]2CN(CCc3c([nH]c4ccccc34)[C@@](C(=O)OC)(c3cc4c(cc3OC)N(C=O)[C@H]3[C@@](O)(C(=O)OC)[C@H](OC(C)=O)[C@]5(CC)C=CCN6CC[C@]43[C@@H]65)C2)C1 [Vincristine, vincristine]
% cell survival [11]: 89.12 ± 1.3%
% cell survival ([5]; ii) Vincristine 1.0 ng/ml alone): 72.98 ± 3.5%
